Test results: PubChem BioAssay (NCI)
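Following 48 hours of exposure in 96-well plates, responses at five concentrations were used to interpolate endpoints linearly. GI50 is the concentration that inhibits growth by half. TGI: concentration producing complete growth inhibition.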

What was measured:
Assay in all cases: NCI-60 cell line screen, 48 h
UACC-62 melanoma = tested on: UACC-62 melanoma
OVCAR-5 ovarian = tested on: OVCAR-5 ovarian
IGROV1 ovarian = tested on: IGROV1 ovarian
EKVX NSCLC = tested on: EKVX NSCLC
NCI-H460 lung = tested on: NCI-H460 lung
SK-OV-3 ovarian = tested on: SK-OV-3 ovarian
KM12 colon = tested on: KM12 colon
OVCAR-4 ovarian = tested on: OVCAR-4 ovarian
SF-295 CNS = tested on: SF-295 CNS
OVCAR-8 ovarian = tested on: OVCAR-8 ovarian

Compound	TGI (UACC-62 melanoma) [µM]	TGI (OVCAR-5 ovarian) [µM]	TGI (IGROV1 ovarian) [µM]	TGI (EKVX NSCLC) [µM]	TGI (NCI-H460 lung) [µM]	TGI (SK-OV-3 ovarian) [µM]	TGI (KM12 colon) [µM]	TGI (OVCAR-4 ovarian) [µM]	TGI (SF-295 CNS) [µM]	TGI (OVCAR-8 ovarian) [µM]	GI50 (UACC-62 melanoma) [µM]	GI50 (OVCAR-5 ovarian) [µM]	GI50 (IGROV1 ovarian) [µM]	GI50 (EKVX NSCLC) [µM]	GI50 (NCI-H460 lung) [µM]	GI50 (SK-OV-3 ovarian) [µM]	GI50 (KM12 colon) [µM]	GI50 (OVCAR-4 ovarian) [µM]	GI50 (SF-295 CNS) [µM]	GI50 (OVCAR-8 ovarian) [µM]
CCCCCCCNC(P(=O)(O)O)P(=O)(O)O	> 100	> 100	> 100	> 100	> 100	> 100	> 100	> 100	> 100	> 100										
Fc1ccc(-c2nn3c(-c4cc(C(F)(F)F)cc(C(F)(F)F)c4)nnc3s2)cc1	> 50	> 50	> 50	> 50	> 50	3.9	> 50	> 50	> 50	> 50	> 50	> 50	1.66	1.75	1.62	1.38	> 50	1.48	1.72	1.77
C=C1C(=O)O[C@@H]2[C@H]1CCC(C)=C1C=CC(=O)[C@]12C	22.6	31.8	46.7	31.1	35.1	61.4	31.4		32.7	36.1										
COC1=CC(=O)c2c(cc(COP(=O)(OCC3OC(n4cc(F)c(=O)[nH]c4=O)CC3O)N(C)CCCCCl)n2C)C1=O (stereo not drawn)	1.79	41.1	23.7	26	14	> 79.8	97.9	> 34.8	1.36	> 73.3										
O=C(O)C1CCC(=O)N1S(=O)(=O)c1ccccc1 (stereo not drawn)	> 100	> 100	> 100	> 100	> 100	> 100	> 100	> 100	> 100	> 100										
CO/C(=C/C(=O)C(Cl)(Cl)Cl)CC/C(=C\C(=O)C(Cl)(Cl)Cl)OC	46.8	> 100	35.8	59.7	99.3	87.3	98.9	51	> 100	56										
O=C(Nc1c(C(=O)NC2CCCCC2)[nH]c(=O)[nH]c1=O)c1ccc(Cl)cc1	> 100	> 100	> 100	> 100	> 100	> 100	> 100	> 100	> 100	> 100										
c1ccc(N=c2nc(N3CCOCC3)ss2)cc1	27.5	52.1	52.7	36.4	34.7	> 100	32.5	29.1	35.1	28.3										
NC1(C(=O)O)CCc2ccc(N(CCCl)CCCl)cc2C1 (stereo not drawn)	> 100	> 100	> 100	> 100	> 100	> 100	> 100	> 100	> 100	> 100										
CC(=O)OCC1=C(C(=O)O)C(c2ccc3c(c2)OCO3)c2cc3c(cc2O1)OCO3 (stereo not drawn)	> 100		> 100	> 100	> 100	> 100		> 100	> 100	> 100										
Cc1cc(C)c2c(c1)C1=NCCN1C2(O)c1ccc(Cl)cc1 (stereo not drawn)	29.4	33.1	27.4	33.3	29.3	28.5	30	29.7	31.4	30.2										
Cc1cc2c(C(C)C)c(O)c(O)c(C=NCCO)c2c(O)c1-c1c(C)cc2c(C(C)C)c(O)c(O)c(C=NCCO)c2c1O	6.15	9.63	6.38	7.3	2.41	12.3	2.4	16.3	5.51	21.9										
CC(=O)O[C@H]1C=CC(=O)C(C)CC1C (stereo partly drawn)	> 100	> 100	> 100	> 100	> 100	> 100	> 100	> 100	> 100											
Clc1ccc(CNc2nc(Cl)c3[nH]cnc3n2)cc1Cl	> 100	> 100	> 100	> 100	73.3	85.5	> 100	> 100	> 100	99.2										
CCOc1ccc(/C(C=O)=C(\Cl)c2ccc(OC)c(OC)c2)cc1	> 100		> 100	> 100	> 100	> 100			> 100	> 100										
Cc1ccc(C2N=C(N)NC3=C2CCOc2c3ccc3ccccc23)cc1 (stereo not drawn)	57.5	> 77.1	> 100	> 55.1	> 100	> 100	> 51.1	> 83.7	62.2	> 70.5			44.6							
N=C(N)SCc1cc(Cl)cc(Cl)c1O	34	40.3	38.2	42.8	36.2	> 100	33.7	51.6	55.7	38.3										
O=C(COc1ccc(OCC(=O)NNC2=NC(c3cc(F)c(Cl)cc3Cl)CS2)c(Cl)c1)NNC1=NC(c2cc(F)c(Cl)cc2Cl)CS1 (stereo not drawn)	40.4	> 100	> 100	77.3	> 100	> 100	> 100	40.4	71.6	64.5										
CC(=O)C=NCC(=O)O	> 100	> 100	> 100	> 100	> 100	> 100	> 100	> 100	> 100	> 100										
CCCC(N)C(=O)c1ccccc1 (stereo not drawn)	> 100	> 100	> 100	> 100	> 100	> 100	> 100	> 100	> 100	> 100										
c1ccc(-c2nnc(SCc3c[nH]c4ccccc34)n2-c2ccccc2)cc1	66.7	> 100	> 100	> 100	> 100	> 100	> 100	> 100	> 100	> 100										
COc1c2c(cc3c1OCO3)C13C=CC(OC)CC1N(CC3)C2 (stereo not drawn)	> 100	> 100	> 100	> 100		> 100	> 100	> 100	> 100	> 100										
O=C(Nc1ccc(Sc2ccc(N=Nc3c(O)c(S(=O)(=O)O)cc4cc(S(=O)(=O)O)ccc34)cc2)cc1)c1ccc(N=Nc2c(O)ccc3c(S(=O)(=O)O)cc(S(=O)(=O)O)cc23)cc1	49.7	> 100	> 100	> 100	> 100	> 100	> 100	> 100	> 100	> 100										
Cc1cc(C)nc(SCC(=O)OC2CC(C)CCC2C(C)C)n1 (stereo not drawn)	33.9	47.9	65.6	39.3	35.8	> 100	42.7	50.6	31.6	> 100										
N#CC(Nc1cccc(C(F)(F)F)c1)c1ccccc1C(F)(F)F (stereo not drawn)	31.4	28.4	38.1	28.7	29.9	31.4	19.9	15.2	22.2	33										
